Ends that are not written are not given here.
How the values were obtained:
[1] = system: HIV-1IIIB; conditions: positive controls
[2] = system: hepatitis B virus (HBV) ayw strain; assay: HBV assay in HepG2-2.2.15 cells, secreted HBV DNA by TaqMan PCR; format: cell-based; conditions: 10 micrograms per ml, six days, HBV DNA in supernatant
[3] = system: Th1/Th2 cytokines in spleen cells; assay: Th1/Th2 cytokine profiling assay (Ovalbumin-restimulated spleen cells, CBA kit); format: cell-based, Balb/c mice; conditions: 10 micrograms per ml; Ovalbumin restimulation; 72 hours
[4] = system: LPS-induced TNF-alpha production in human macrophages; assay: TNF alpha production assay (LPS-stimulated macrophages, ELISA); format: cell-based; conditions: 10 micrograms per ml; LPS 200 ng/ml; overnight
Source text: Not stimulated macrophages served as negative background control.

[5] = system: HUVEC; assay: Endothelial tube formation assay; format: cell-based, human; conditions: 10 micrograms per ml, 20 hours
Source text: Positive control was vehicle only.

[6] = system: HCMV strain AD169; assay: HCMV plaque formation assay in MRC-5 cells; conditions: 10 micrograms per ml, 7-10 days

Row | Molecule | antiviral activity of positive control compounds (HIV-1) [1] | inhibition of HBV replication as compared to the virus control infection [2] | IFNγ spleen cells; TH1 response (% of control) [3] | IL-2 spleen cells (% of control) [3] | IL-4 spleen cells; TH2 response (% of control) [3] | IL-5 spleen cells; TH2 response (% of control) [3] | TNF-a spleen cells; TH1 response (% of control) [3] | induction of the LPS-induced TNF-alpha production in human macrophages [4] | inhibition of the tube formation of endothelial cells [5] | inhibition of HCMV plaque formation as compared to the virus control [6]
1 | Cc1cn([C@H]2C[C@H](N=[N+]=[N-])[C@@H](CO)O2)c(=O)[nH]c1=O [AZT] | expected levels of antiviral activity | – | – | – | – | – | – | – | – | –
2 | CC(C)(C)NC(=O)[C@@H]1CN(Cc2cccnc2)CCN1C[C@@H](O)C[C@@H](Cc1ccccc1)C(=O)N[C@H]1c2ccccc2C[C@H]1O [indinavir] | expected levels of antiviral activity | – | – | – | – | – | – | – | – | –
3 | Tyr-Leu-Leu-Pro-Ala-Gln-Val-Asn-Ile-Asp-OH (YLLPAQVNID-OH) [peptide 1] | – | 65.0% | 135.2 % of control | 215.4 % of control | 138.4 % of control | 111.1 % of control | 165.0 % of control | 18% | 25% | did not inhibit

From patent publication US20100204108A1, “USE OF NEUROTROPHIC FACTOR FOR RETINAL CHOLINERGIC NEURONS (NFRCN) AND CHORIONIC GONADOTROPIN-BETA (109-145) AS THERAPEUTIC AGENTS” (priority 2007, published 2010)
